Test system: MOLM13 cells
Assay: Growth inhibition of CDK9-positive cell line MOLM13 in vitro (CCK8/MTT assay)
Type: cell-based, human
Conditions: Homo sapiens, MOLM-13; MOLM13 cells, cultured 3 to 6 days, CCK8; read-out: IC50 of the compound for inhibiting cell growth, MOLM13 cells
Protocol: 1. MOLM13 cell line and cell culture MOLM13 is a CDK9-positive human acute myeloid leukemia cell line from DMSZ. Suspension culture was carried out in RPMI1640 (Gibco) medium with 10% fetal bovine serum (Gibco), 1% penicillin-streptomycin and 2 mM glutamine.
Suspended MOLM-13 cells in logarithmic growth phase were collected by centrifugation (1700 rpm, 3 minutes), the supernatant was discarded, and the cells were counted. A solution with a cell concentration of 2×10^5 cells per milliliter was formulated and inoculated in a 96-well plate (Corning) with 100 microliters per well. The plate was incubated at 37° C., 5% CO2 overnight. On the next day, the test compound was added to the cultured cells in two parallel wells. […]
The present compound and the control compounds were respectively dissolved in DMSO (Sigma).
When the solvent control well became dark yellow, the OD450 nm absorption value was measured, and the cell growth rate was calculated according to the following formula. Cell growth rate %=100*(T−T0)/(C−T0), wherein T=the optical density value of the drug-treated well—the optical density value of the blank control well, T0=the optical density value of the well before drug treatment—the optical density value of the blank control well, C=the optical density value of the solvent control well—the optical density value of the blank control well. […] The assay was repeated three times, and the data was subjected to a biological statistical analysis.

| Compound | IC50 |
| --- | --- |
| CN(C)c1ccc(Nc2nccc(-n3cc(C(N)=O)c4ccccc43)n2)cc1 [Compound 75, 1-[2-(4-dimethylamino-phenylamino)-pyrimidin-4-yl]-1H-indole-3-carboxamide] | 0.1 to 1 µM |
| CN(C)CCCN(C)c1ccc(Nc2nccc(-n3cc(C(N)=O)c4ccccc43)n2)cc1 [Compound 76, 1-(2-{4-[(3-dimethylamino-propyl)-methyl-amino]-phenylamino}-pyrimidin-4-yl)-1H-indole-3-carboxamide] | 0.01 to 0.1 µM |
| CN(C)CCN(C)c1ccc(Nc2nccc(-n3cc(C(N)=O)c4ccccc43)n2)cc1 [Compound 77, 1-(2-{4-[(2-dimethylamino-ethyl)-methyl-amino]-phenylamino}-pyrimidin-4-yl)-1H-indole-3-carboxamide] | 0.01 to 0.1 µM |
| CN(C)CCN(C)c1ccc(Nc2nccc(-n3cc(C(N)=O)c4ccccc43)n2)c(Br)c1 [Compound 78, 1-(2-{2-bromo-4-[(2-dimethylamino-ethyl)-methyl-amino]-phenylamino}-pyrimidin-4-yl)-1H-indole-3-carboxamide] | 0.1 to 1 µM |
| Cc1cc(Nc2nccc(-n3cc(C(N)=O)c4ccccc43)n2)ccc1N(C)CCN(C)C [Compound 79, 1-(2-{4-[(2-dimethylamino-ethyl)-methyl-amino]-3-methyl-phenylamino}-pyrimidin-4-yl)-1H-indole-3-carboxamide] | 0.001 to 0.01 µM |
| COc1cc(Nc2nccc(-n3cc(C(N)=O)c4ccccc43)n2)ccc1N(C)CCN(C)C [Compound 80, 1-(2-{4-[(2-dimethylamino-ethyl)-methyl-amino]-3-methoxy-phenylamino}-pyrimidin-4-yl)-1H-indole-3-carboxamide] | 0.001 to 0.01 µM |
| CC(C)Oc1cc(Nc2nccc(-n3cc(C(N)=O)c4ccccc43)n2)ccc1N(C)CCN(C)C [Compound 81, 1-(2-{4-[(2-dimethylamino-ethyl)-methyl-amino]-3-isopropoxy-phenylamino}-pyrimidin-4-yl)-1H-indole-3-carboxamide] | 0.001 to 0.01 µM |
| CN(C)CCN(C)c1ccc(Nc2nccc(-n3cc(C(N)=O)c4ccccc43)n2)cc1Cl [Compound 82, 1-(2-{3-chloro-4-[(2-dimethylamino-ethyl)-methyl-amino]-phenylamino}-pyrimidin-4-yl)-1H-indole-3-carboxamide] | 0.01 to 0.1 µM |
| CN(C)CCCN(C)c1ccc(Nc2nccc(-n3cc(C(N)=O)c4ccccc43)n2)cc1Cl [Compound 83, 1-(2-{3-chloro-4-[(3-dimethylamino-propyl)-methyl-amino]-phenylamino}-pyrimidin-4-yl)-1H-indole-3-carboxamide] | 0.01 to 0.1 µM |
| CN(C)CCN(C)c1ccc(Nc2ncc(F)c(-n3cc(C(N)=O)c4ccccc43)n2)cc1 [Compound 84, 1-(2-{4-[(2-dimethylamino-ethyl)-methyl-amino]-phenylamino}-5-fluoro-pyrimidin-4-yl)-1H-indole-3-carboxamide] | 0.001 to 0.01 µM |
| CN(C)CCN(C)c1ccc(Nc2ncc(Cl)c(-n3cc(C(N)=O)c4ccccc43)n2)cc1 [Compound 85, 1-(5-chloro-2-{4-[(2-dimethylamino-ethyl)-methyl-amino]-phenylamino}-pyrimidin-4-yl)-1H-indole-3-carboxamide] | 0.001 to 0.01 µM |
| COc1cc(Nc2ncc(F)c(-n3cc(C(N)=O)c4ccccc43)n2)ccc1N(C)CCN(C)C [Compound 86, 1-(2-{4-[(2-dimethylamino-ethyl)-methyl-amino]-3-methoxy-phenylamino}-5-fluoro-pyrimidin-4-yl)-1H-indole-3-carboxamide] | 0.001 to 0.01 µM |
| COc1cc(Nc2ncc(Cl)c(-n3cc(C(N)=O)c4ccccc43)n2)ccc1N(C)CCN(C)C [Compound 87, 1-(2-{4-[(2-dimethylamino-ethyl)-methyl-amino]-3-methoxy-phenylamino}-5-chloro-pyrimidin-4-yl)-1H-indole-3-carboxamide] | 0.001 to 0.01 µM |
| CN(CCN1CCCC1)c1ccc(Nc2nccc(-n3cc(C(N)=O)c4ccccc43)n2)cc1 [Compound 90, 1-(2-{4-[methyl-(2-pyrrolidin-1-ylethyl)-amino]-phenylamino}-pyrimidin-4-yl)-1H-indole-3-carboxamide] | 0.001 to 0.01 µM |
| COc1cc(Nc2nccc(-n3cc(C(N)=O)c4ccccc43)n2)ccc1N(C)CCN1CCCC1 [Compound 91] | 0.001 to 0.01 µM |
| CN(CCN1CCCC1)c1ccc(Nc2nccc(-n3cc(C(N)=O)c4ccccc43)n2)cc1F [Compound 92, 1-(2-{3-fluoro-4-[methyl-(2-pyrrolidin-1-yl-ethyl)-amino]-phenylamino}-pyrimidin-4-yl)-1H-indole-3-carboxamide] | 0.1 to 1 µM |
| CN(CCN1CCCC1)c1ccc(Nc2ncc(F)c(-n3cc(C(N)=O)c4ccccc43)n2)cc1 [Compound 93, 1-(5-fluoro-2-{4-[methyl-(2-pyrrolidin-1-yl-ethyl)-amino]-phenylamino}-pyrimidin-4-yl)-1H-indole-3-carboxamide] | 0.001 to 0.01 µM |
| CN(CCN1CCCC1)c1ccc(Nc2ncc(Cl)c(-n3cc(C(N)=O)c4ccccc43)n2)cc1 [Compound 94, 1-(5-chloro-2-{4-[methyl-(2-pyrrolidin-1-yl-ethyl)-amino]-phenylamino}-pyrimidin-4-yl)-1H-indole-3-carboxamide] | 0.001 to 0.01 µM |
| CN(CCN1CCCC1)c1ccc(Nc2ncc(F)c(-n3cc(C(N)=O)c4ccccc43)n2)cc1F [Compound 95, 1-(5-fluoro-2-{3-fluoro-4-[methyl-(2-pyrrolidin-1-yl-ethyl)-amino]-phenylamino}-pyrimidin-4-yl)-1H-indole-3-carboxamide] | 0.01 to 0.1 µM |
| Cc1cc(Nc2ncc(F)c(-n3cc(C(N)=O)c4ccccc43)n2)ccc1N(C)CCN1CCCC1 [Compound 96, 1-(5-fluoro-2-{3-methyl-4-[methyl-(2-pyrrolidin-1-yl-ethyl)-amino]-phenylamino}-pyrimidin-4-yl)-1H-indole-3-carboxamide] | 0.001 to 0.01 µM |
| Cc1cc(Nc2ncc(Cl)c(-n3cc(C(N)=O)c4ccccc43)n2)ccc1N(C)CCN1CCCC1 [Compound 97, 1-(5-chloro-2-{3-methyl-4-[methyl-(2-pyrrolidin-1-yl-ethyl)-amino]-phenylamino}-pyrimidin-4-yl)-1H-indole-3-carboxamide] | 0.001 to 0.01 µM |
| COc1cc(Nc2ncc(F)c(-n3cc(C(N)=O)c4ccccc43)n2)ccc1N(C)CCN1CCCC1 [Compound 98, 1-(5-fluoro-2-{3-methoxy-4-[methyl-(2-pyrrolidin-1-yl-ethyl)-amino]-phenylamino}-pyrimidin-4-yl)-1H-indole-3-carboxamide] | 0.001 to 0.01 µM |
| COc1cc(Nc2ncc(Cl)c(-n3cc(C(N)=O)c4ccccc43)n2)ccc1N(C)CCN1CCCC1 [Compound 99, 1-(5-chloro-2-{3-methoxy-4-[methyl-(2-pyrrolidin-1-yl-ethyl)-amino]-phenylamino}-pyrimidin-4-yl)-1H-indole-3-carboxamide] | 0.001 to 0.01 µM |
| COc1cc(Nc2ncc(C)c(-n3cc(C(N)=O)c4ccccc43)n2)ccc1N(C)CCN1CCCC1 [Compound 100, 1-(2-{3-methoxy-4-[methyl-(2-pyrrolidin-1-yl-ethyl)-amino]-phenylamino}-5-methyl-pyrimidin-4-yl)-1H-indole-3-carboxamide] | 0.001 to 0.01 µM |
| CNC(=O)c1cn(-c2ccnc(Nc3ccc(N4CCNCC4)cc3)n2)c2ccccc12 [Compound 101, 1-[2-(4-piperazin-1-yl-phenylamino)-pyrimidin-4-yl]-1H-indole-3-carboxmethylamide] | 0.1 to 1 µM |

Source: patent US20210101881A1 (Ancureall Pharmaceutical (Shanghai) Co., Ltd., priority 2018, published 2021)
